Data on one molecule can be found in article PMC7450530 (Biochemistry, 2019).

The target in assay [1] is T1, M. tuberculosis GyrA^A90V gyrase (Mycobacterium tuberculosis, UniProt P9WG47, A90V). The assay is classed as biochemical.
The target of assay [2] is T1, M. tuberculosis GyrA^A90V gyrase. Type of assay: biochemical. This is another data set of the same source.

For `CC[C@H](C)n1cc(C)c2c(C(=O)NCc3c(C)cc(C)[nH]c3=O)cc(-c3ccc(N4CCNCC4)nc3)cc21` [GSK126], the “single-stranded DNA cleavage enhancement compared to wild-type” value in assay [1] was “induced substantially more single-stranded DNA cleavage”. Besides, in assay [2], the “potency in supercoiling inhibition compared to the wild-type enzyme” value was “potency dropped considerably”.
